Patent US20240150298A1, “ANTIBACTERIAL COMPOUNDS” (Blacksmith Medicines, Inc., priority 2021, published 2024)
≈ marks a conversion by molar mass, not a printed value. Where two headings read alike, the source gives them in different places.

Key:
E. coli ATCC25922 = assay: Bacterial susceptibility testing, MIC by broth microdilution (CLSI); format: cell-based; settings: for MIC: Escherichia coli; for MIC E. coli ATCC25922: broth microdilution
Procedure: (§1) Minimal inhibitory concentrations (MIC) were determined by the broth microdilution method in accordance with the Clinical and Laboratory Standards Institute (CLSI) guidelines. In brief, organism suspensions were adjusted to a final inoculum between 3×10^5 and 7×10^5 colony-forming units (CFU)/mL. Drug dilutions and inocula were made in sterile, cation adjusted Mueller-Hinton Broth (Beckton Dickinson). In wells, an inoculum volume of 100 μL was mixed to 2 μL of DMSO with 2-fold serial dilutions of drug. All inoculated microdilution trays were incubated in ambient air at 35° C. for 18-24 h. Following incubation, the lowest concentration of the drug that prevented visible growth (OD600 nm<0.05) was recorded as the MIC. Performance of the assay was monitored by the use of laboratory quality-control strains and compounds with defined MIC spectrum, in accordance with CLSI guidelines.

K. pneumoniae ATCC13883 = assay: as above; format: cell-based; settings: for MIC: Klebsiella pneumoniae; for MIC K. pneumoniae ATCC13883: broth microdilution
Procedure: as §1

P. aeruginosa 209 PAO1 = assay: as above; format: cell-based; settings: for MIC: Pseudomonas aeruginosa
Procedure: as §1

P. aeruginosa ATCC27835 = assay: as above; format: cell-based; settings: for MIC: Pseudomonas aeruginosa
Procedure: as §1

P. aeruginosa LpxC = target: T1, P. aeruginosa LpxC (Pseudomonas aeruginosa, UniProt P47205); assay: LpxC Binding Assay (Rapid Fire MS assay); format: biochemical
T1 sequence (P47205 1-303): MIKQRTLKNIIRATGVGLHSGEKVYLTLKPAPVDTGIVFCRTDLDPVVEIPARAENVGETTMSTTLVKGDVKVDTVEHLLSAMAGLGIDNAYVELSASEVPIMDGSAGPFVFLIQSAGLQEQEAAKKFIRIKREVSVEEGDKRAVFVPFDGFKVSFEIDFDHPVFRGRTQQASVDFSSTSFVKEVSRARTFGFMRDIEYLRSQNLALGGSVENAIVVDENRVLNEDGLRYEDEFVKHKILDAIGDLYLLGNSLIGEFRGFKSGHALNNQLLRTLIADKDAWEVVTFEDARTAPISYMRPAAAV
Procedure: (§2) IC50 values against E. coli and P. aeruginosa LpxC are determined using a Rapid Fire MS assay as previously described J. Med. Chem. 2012, 55, 1662-1670.

E. coli LpxC = E. coli LpxC (Escherichia coli, UniProt P0A725); assay: LpxC Binding Assay (Rapid Fire MS assay); format: biochemical
Procedure: as §2

[1] = ATCC25922, broth microdilution, 35° C., 18-24 h, read-out: MIC E. coli ATCC25922
[2] = ATCC13883, broth microdilution, 35° C., 18-24 h, read-out: MIC K. pneumoniae ATCC13883
[3] = PAO1, broth microdilution, 35° C., 18-24 h, read-out: MIC P. aeruginosa 209 PAO1
[4] = ATCC27835, broth microdilution, 35° C., 18-24 h, read-out: MIC P. aeruginosa ATCC27835
[5] = broth microdilution, 35° C., 18-24 h

Chain of E. coli LpxC (P0A725 whole entry): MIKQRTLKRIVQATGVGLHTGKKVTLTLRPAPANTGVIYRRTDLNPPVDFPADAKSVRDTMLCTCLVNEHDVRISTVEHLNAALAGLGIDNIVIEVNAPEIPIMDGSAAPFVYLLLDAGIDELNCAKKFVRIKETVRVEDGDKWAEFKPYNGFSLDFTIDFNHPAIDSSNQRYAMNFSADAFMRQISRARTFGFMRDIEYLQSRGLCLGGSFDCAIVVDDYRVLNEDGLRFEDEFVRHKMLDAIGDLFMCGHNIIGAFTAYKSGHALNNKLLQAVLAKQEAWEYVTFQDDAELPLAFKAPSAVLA

| SMILES | MIC (E. coli ATCC25922; [1]) [µg/mL] | MIC (K. pneumoniae ATCC13883; [2]) [µg/mL] | MIC (P. aeruginosa 209 PAO1; [3]) [µg/mL] | MIC (P. aeruginosa ATCC27835; [4]) [µg/mL] | IC50 (P. aeruginosa LpxC) [nM] | IC50 (E. coli LpxC) [nM] | other results |
| --- | --- | --- | --- | --- | --- | --- | --- |
| C[C@H](O)c1nccn1[C@@H](/C=C/c1ccc(-c2ccc(OCC(CO)N(C)C)cc2)cc1)CO (mixture of isomers) [Compound 12, (2S,E)-4-(4′-(2-(dimethylamino)-3-hydroxypropoxy)-[1,1′-biphenyl]-4-yl)-2-(2-((S)-1-hydroxyethyl)-1H-imidazol-1-yl)but-3-en-1-ol] | 4 (≈ 8.86 µM) | 16 (≈ 35.4 µM) | 4 (≈ 8.86 µM) | 4 (≈ 8.86 µM) | 69.2 | 82.5 | – |
| C[C@H](O)c1nccn1C/C=C/c1ccc(-c2ccc(OC[C@H](N)CO)cc2)cc1 [Compound 3, (R)-2-amino-3-((4′-((E)-3-(2-((S)-1-hydroxyethyl)-1H-imidazol-1-yl)prop-1-en-1-yl)-[1,1′-biphenyl]-4-yl)oxy)propan-1-ol] | 2 (≈ 5.08 µM) | 8 (≈ 20.3 µM) | 4 (≈ 10.2 µM) | 4 (≈ 10.2 µM) | 132 | 11.4 | – |
| C[C@H](O)c1nccn1[C@@H](/C=C/c1ccc(-c2ccc(O[C@H]3C[C@@H]3N)cc2)cc1)CO (single isomer, unassigned) [Compound 14] | 1 (≈ 2.47 µM) | 2 (≈ 4.93 µM) | 1 (≈ 2.47 µM) | 8 (≈ 19.7 µM) | 22.3 | 9.51 | – |
| C[C@H](O)c1nccn1[C@@H](/C=C/c1ccc(-c2ccc(C3CC(NCC#N)C3)cc2F)cc1)CO (stereo partly drawn) [Compound 75, 2-((3-(2-fluoro-4′-((S,E)-4-hydroxy-3-(2-((S)-1-hydroxyethyl)-1H-imidazol-1-yl)but-1-en-1-yl)-[1,1′-biphenyl]-4-yl)cyclobutyl)amino)acetonitrile] | 0.25 (≈ 0.543 µM) | 0.5 (≈ 1.09 µM) | 2 (≈ 4.34 µM) | 4 (≈ 8.69 µM) | – | – | – |
| C[C@H](O)c1nccn1[C@@H](/C=C/c1ccc(-c2ccc(C3CC(C(=O)O)C3)cc2)cc1)CO (stereo partly drawn) [Compound 51, 3-(4′-((S,E)-4-hydroxy-3-(2-((S)-1-hydroxyethyl)-1H-imidazol-1-yl)but-1-en-1-yl)-[1,1′-biphenyl]-4-yl)cyclobutane-1-carboxylic acid] | 4 (≈ 9.25 µM) | 8 (≈ 18.5 µM) | 4 (≈ 9.25 µM) | 4 (≈ 9.25 µM) | – | – | – |
| C[C@H](O)c1nccn1[C@@H](/C=C/c1ccc(-c2ccc(C3CC(CNCc4noc(C(N)=O)n4)C3)cc2)cc1)CO (stereo partly drawn) [Compound 57, 3-((((3-(4′-((S,E)-4-hydroxy-3-(2-((S)-1-hydroxyethyl)-1H-imidazol-1-yl)but-1-en-1-yl)-[1,1′-biphenyl]-4-yl)cyclobutyl)methyl)amino)methyl)-1,2,4-oxadiazole-5-carboxamide] | 0.25 (≈ 0.461 µM) | 1 (≈ 1.84 µM) | 4 (≈ 7.37 µM) | 4 (≈ 7.37 µM) | – | – | – |
| C[C@H](O)c1nccn1[C@@H](/C=C/c1ccc(-c2ccc(OCC(N)CO)cc2)cc1)CO (mixture of isomers) [Compound 25, (2S,E)-4-(4′-(2-amino-3-hydroxypropoxy)-[1,1′-biphenyl]-4-yl)-2-(2-((S)-1-hydroxyethyl)-1H-imidazol-1-yl)but-3-en-1-ol] | – | – | – | – | 70.6 | 44.6 | MIC E. coli ATCC25922 (E. coli ATCC25922; 35° C., 18-24 h): 2 µg/mL (≈ 4.72 µM); MIC K. pneumoniae ATCC13883 (K. pneumoniae ATCC13883; 35° C., 18-24 h): 4 µg/mL (≈ 9.44 µM); MIC P. aeruginosa 209 PAO1 (P. aeruginosa 209 PAO1; [5]): 2 µg/mL (≈ 4.72 µM); MIC P. aeruginosa ATCC27835 (P. aeruginosa ATCC27835; [5]): 2 µg/mL (≈ 4.72 µM) |
| C[C@H](O)c1nccn1[C@@H](/C=C/c1ccc(-c2ccc(OCC3(CO)COC3)cc2)cc1)CO [Compound 68, (S,E)-2-(2-((S)-1-hydroxyethyl)-1H-imidazol-1-yl)-4-(4′-((3-(hydroxymethyl)oxetan-3-yl)methoxy)-[1,1′-biphenyl]-4-yl)but-3-en-1-ol] | 1 (≈ 2.22 µM) | 2 (≈ 4.44 µM) | 4 (≈ 8.88 µM) | 4 (≈ 8.88 µM) | – | – | – |
| C[C@H](O)c1nccn1C/C=C/c1ccc(-c2ccc(OCCN3CC(CN)C3)cc2)cc1 [Compound 6, (S,E)-1-(1-(3-(4′-(2-(3-(aminomethyl)azetidin-1-yl)ethoxy)-[1,1′-biphenyl]-4-yl)allyl)-1H-imidazol-2-yl)ethan-1-ol] | 4 (≈ 9.25 µM) | 16 (≈ 37 µM) | 4 (≈ 9.25 µM) | 4 (≈ 9.25 µM) | – | – | – |
| C[C@H](O)c1nccn1[C@@H](/C=C/c1ccc(-c2ccc(C3CC(CNCC(O)CO)C3)cc2)cc1)CO (stereo partly drawn) [Compound 60, 3-(((3-(4′-((S,E)-4-hydroxy-3-(2-((S)-1-hydroxyethyl)-1H-imidazol-1-yl)but-1-en-1-yl)-[1,1′-biphenyl]-4-yl)cyclobutyl)methyl)amino) propane-1,2-diol] | 8 (≈ 16.3 µM) | 16 (≈ 32.5 µM) | 4 (≈ 8.14 µM) | 4 (≈ 8.14 µM) | – | – | – |
| C[C@H](O)c1nccn1[C@@H](/C=C/c1ccc(-c2ccc(O[C@H]3C[C@@H]3N)cc2)cc1)CO (racemic) [Compound 13, (S,E)-4-(4′-((trans)-2-aminocyclopropoxy)-[1,1′-biphenyl]-4-yl)-2-(2-((S)-1-hydroxyethyl)-1H-imidazol-1-yl)but-3-en-1-ol] | 4 (≈ 9.86 µM) | 4 (≈ 9.86 µM) | 2 (≈ 4.93 µM) | 16 (≈ 39.5 µM) | – | – | – |
| C[C@H](O)c1nccn1C/C=C/c1ccc(-c2ccc(OC3CCN(CCO)CC3)cc2)cc1 [Compound 1, (S,E)-2-(4-((4′-(3-(2-(1-hydroxyethyl)-1H-imidazol-1-yl)prop-1-en-1-yl)-[1,1′-biphenyl]-4-yl)oxy)piperidin-1-yl)ethan-1-ol] | 1 (≈ 2.23 µM) | 1 (≈ 2.23 µM) | 4 (≈ 8.94 µM) | 4 (≈ 8.94 µM) | 81 | 25.8 | – |
| C[C@H](O)c1nccn1C/C=C/c1ccc(-c2ccc(O[C@@H]3C[C@H]3N)cc2)cc1 (racemic) [Compound 4, (S)-1-(1-((E)-3-(4′-((trans)-2-aminocyclopropoxy)-[1,1′-biphenyl]-4-yl)allyl)-1H-imidazol-2-yl)ethan-1-ol] | 0.12 (≈ 0.32 µM) | 0.12 (≈ 0.32 µM) | 2 (≈ 5.33 µM) | 4 (≈ 10.7 µM) | 23.2 | 9.25 | – |
| C[C@H](O)c1nccn1[C@@H](/C=C/c1ccc(-c2ccc([C@H]3C[C@H](NC(=O)CO)C3)cc2)cc1)CO [Compound 64, 2-hydroxy-N-((1S,3r)-3-(4′-((S,E)-4-hydroxy-3-(2-((S)-1-hydroxyethyl)-1H-imidazol-1-yl)but-1-en-1-yl)-[1,1′-biphenyl]-4-yl)cyclobutyl)acetamide] | – | – | – | – | – | – | MIC (E. coli ATCC25922; ATCC25922, read-out: MIC E. coli ATCC25922): 1 µg/mL (≈ 2.17 µM); MIC (K. pneumoniae ATCC13883; ATCC13883, read-out: MIC K. pneumoniae ATCC13883): 2 µg/mL (≈ 4.33 µM); MIC (P. aeruginosa 209 PAO1; PAO1, read-out: MIC P. aeruginosa 209 PAO1): 1 µg/mL (≈ 2.17 µM); MIC (P. aeruginosa ATCC27835; ATCC27835, read-out: MIC P. aeruginosa ATCC27835): 2 µg/mL (≈ 4.33 µM) |
| C[C@H](O)c1nccn1[C@@H](/C=C/c1ccc(-c2ccc(OCC(N)CO)cc2)cc1)CO (mixture of isomers) [Compound 8, (2S,E)-4-(4′-(2-amino-3-hydroxypropoxy)-[1,1′-biphenyl]-4-yl)-2-(2-((S)-1-hydroxyethyl)-1H-imidazol-1-yl)but-3-en-1-ol] | – | – | 4 (≈ 9.44 µM) | 4 (≈ 9.44 µM) | – | – | MIC E. coli ATCC25922 (E. coli ATCC25922; 35° C., 18-24 h): 16 µg/mL (≈ 37.8 µM); MIC K. pneumoniae ATCC13883 (K. pneumoniae ATCC13883; 35° C., 18-24 h): 64 µg/mL (≈ 151 µM) |
| C[C@H](O)c1nccn1[C@@H](/C=C/c1ccc(-c2ccc(C3CC(C(=O)NCC#N)C3)cc2)cc1)CO (stereo partly drawn) [Compound 50, N-(cyanomethyl)-3-(4′-((S,E)-4-hydroxy-3-(2-((S)-1-hydroxyethyl)-1H-imidazol-1-yl)but-1-en-1-yl)-[1,1′-biphenyl]-4-yl)cyclobutane-1-carboxamide] | 0.5 (≈ 1.06 µM) | 1 (≈ 2.13 µM) | 2 (≈ 4.25 µM) | 2 (≈ 4.25 µM) | – | – | – |
| C[C@H](O)c1nccn1[C@@H](/C=C/c1ccc(-c2ccc([C@@H]3C[C@H]3OCCO)cc2)cc1)CO [Compound 71, (S,E)-4-(4′-((1S,2R)-2-(2-hydroxyethoxy)cyclopropyl)-[1,1′-biphenyl]-4-yl)-2-(2-((S)-1-hydroxyethyl)-1H-imidazol-1-yl)but-3-en-1-ol] | 0.5 (≈ 1.15 µM) | 0.5 (≈ 1.15 µM) | 2 (≈ 4.6 µM) | 4 (≈ 9.21 µM) | – | – | – |
